Bridges are numbered along the chain shown (N, C = ends). Where no end group is shown, it is not given here.
What was measured:
bovine trypsin = target: T1, bovine trypsin (Bos taurus, UniProt P00760); test: Protease stability, commercial trypsin digestion; format: in vitro ADME; conditions: for Degradation half time ratio to Ta1b, Trypsin: ratio of half lives with bovine trypsin
T1 construct: purchased Sigma-Aldrich
T1 sequence (P00760 24-246): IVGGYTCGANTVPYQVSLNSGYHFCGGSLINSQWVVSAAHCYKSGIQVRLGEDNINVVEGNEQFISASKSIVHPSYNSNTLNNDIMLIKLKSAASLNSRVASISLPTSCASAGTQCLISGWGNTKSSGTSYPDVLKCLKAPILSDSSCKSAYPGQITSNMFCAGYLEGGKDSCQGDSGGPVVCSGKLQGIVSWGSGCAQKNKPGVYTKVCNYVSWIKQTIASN
Protocol: (§1) For commercial enzyme digestion studies, bovine trypsin (Sigma‐Aldrich, St. Louis, MO) was prepared at a concentration of 1 mg mL^−1 in 50 mM Tris–HCl pH 8.8, 100 mM NaCl. Bovine chymotrypsin (Sigma‐Aldrich) was prepared at a concentration of 1 mg ml^−1 in 50 mM MES pH 6.0, 100 mM NaCl. For each digestion condition, 5 μL of trypsin or chymotrypsin solution were added to 200 μL of 10.7 mg mL^−1 peptide and incubated at room temperature. Samples were taken at defined timepoints, sterile filtered, and analyzed immediately by HPLC.

[1] = Protease stability, commercial trypsin digestion; format: in vitro ADME, bovine; conditions: bovine trypsin 1 mg mL^−1 in 50 mM Tris–HCl pH 8.8, 100 mM NaCl; 5 μL added to 200 μL of 10.7 mg mL^−1 peptide; room temperature; HPLC; read-out: Degradation half life, Trypsin
Protocol: as §1

[2] = Gut enzyme digestion, M. sexta gut extract; format: in vitro ADME, Manduca sexta; conditions: for half-life: M. sexta fifth instar gut extract diluted 10× in 30 mM Tris–HCl pH 8.8, 0.5–1 mg mL^−1 peptide, HPLC, single exponential decay fit, read-out: Degradation half life, Gut extract; for Degradation half time ratio to Ta1b, Gut extract: ratio of half lives in M. sexta gut extract; for Fold stability improvement over Ta1b: gut extract stability testing, limit of testing 50‐fold
Protocol: (§2) Larvae of H. zea, Spodoptera frugiperda Smith and Abbot, 1797, and Trichoplusia ni Hubner, 1802 were purchased from Benzon Research and reared to fifth instar on general purpose lepidopteran diet. Manduca sexta L. were purchased from Carolina Biological Supply (Burlington, NC) and reared to fifth instar on the supplied diet. Larvae were anesthetized on ice for 30 min, pinned on a dissection plate, and opened laterally with microdissection scissors. The foregut, midgut and hindgut were excised and washed using sterile water to remove any excess hemolymph and then transferred into a chilled 2‐mL microcentrifuge tube. The extracts were spun in a microcentrifuge at 10000 g to pellet the solids. The liquid fractions were carefully removed, sterile filtered, and stored at −80°C for future use.
(§3) For gut enzyme digestion studies, gut extract was diluted 10× with the dilution buffer (30 mM Tris–HCl, pH 8.8) and 0.5–1 mg mL^−1 of Ta1b. Samples were taken from the digestion mixture at defined timepoints and mixed with a 1:6 ratio of stop buffer (Tris–HCl pH 1–2) to halt further digest of the peptide. Samples were sterile filtered and analyzed by HPLC to determine peptide integrity and concentration.

Musca domestica = test: Insecticidal activity by injection into adult house flies; format: in vivo; conditions: adult house flies 12–18 mg, 0.5 μL into dorsal thorax, mortality 24 h post‐injection, 10 flies per treatment, at least triplicate, four‐parameter sigmoidal fit
Protocol: Adult house flies (Musca domestica L.) were immobilized with CO2 gas and those with an average weight of 12–18 mg were selected for injection. Purified solutions of Ta1b and variants were diluted in water and injected into the dorsal thorax with a 1‐cc syringe and 30‐gauge needle using a hand microapplicator (Burkard, Rickmansworth, England). Each adult was injected with 0.5 μL of solution with 10 flies per treatment in at least triplicate. Water was used as a negative control. Flies were placed into a container with moist filter paper and scored for mortality 24 h post‐injection. Ten non‐injected flies were placed in a container to assess CO2 mortality. Response curves were fitted with a four‐parameter sigmoidal function (GraphPad Prism, Boston, MA) to determine LD50 values.
(§4) To compare the potency of Ta1b, we also injected the following active ingredients into M. domestica and H. zea: GS‐ω/κ (Spear, Vestaron), spinosad (Monterey Garden Insect Spray, Monterey), thiamethoxam (Optigard® Flex, Syngenta), and chlorantraniliprole (ALTACOR®, FMC).

Helicoverpa zea = test: Insecticidal activity by injection into fourth instar larvae; format: in vivo; conditions: fourth instar larvae, 1 μL into penultimate proleg, mortality 24 h after injection, eight larvae per treatment, at least triplicate
Protocol: Helicoverpa zea (Boddie, 1850) larvae were reared from eggs (Benzon, Carlisle, PA) to fourth instar on general purpose lepidopteran diet (F9772, Frontier Agricultural Sciences, Newark, DE). Pre‐weighed larvae immobilized on ice were injected into their penultimate proleg as described for M. domestica with 1 μL solution and eight larvae per treatment in at least triplicate. After injection, larvae were placed in a well of a 32‐well tray filled with 5 mL lepidopteran diet. The trays were then placed in an incubator at 28° C with 16:8 h light: dark cycle and evaluated 24 h after injection for mortality.
as §4

H. zea neonates = test: Insecticidal activity by foliar spray (lettuce leaf disk feeding); format: in vivo, Helicoverpa zea
Protocol: Organic romaine lettuce was cut into 30‐mm diameter disks and sterilized with a 140‐ppm bleach solution followed by a triple rinse in water. The lettuce disks were then sprayed on either side using a Potter Tower Sprayer (Burkard, Rickmansworth, England) with insecticidal solutions, allowing them to dry between sprays. Once fully sprayed and dried, disks were placed into an arena, which was a 32‐well rearing tray containing 5 mL of 1% w/v agar. One leaf disk was placed in each well and a single neonate H. zea was applied to each of the 12 leaf discs per treatment with four experimental replicates per treatment. The trays were then placed in a 28° C incubator with a 16:8 h light: dark cycle. Mortality was evaluated 4 days after application.

Pieris brassicae = test: Field trial on cabbage caterpillar on cabbage; format: in vivo; conditions: spinosad (Laser, 96 g product ha^−1) or Btk alone; two applications 7 days apart; four replicate plots
Protocol: A dose–response of U1‐AGTX‐Ta1b‐QA (Ta1b‐QA) combined with Bacillus thuringiensis subsp. kurstaki (Btk; DiPel DF®, Valent) was performed by Agricola 2000 in a randomized complete block design (RCBD) on cabbage caterpillar (Pieris brassicae L.) on cabbage in Palagiano, Italy with four replicate plots of 1 × 15 m in open‐field containing 25 plants each. Treatments included an untreated check, three rates (22, 34, 45 g AI ha^−1) of an 8.5% w/w spray‐dried sample of Ta1b‐QA together with Btk (DiPel DF®, Valent, 0.5 kg product ha^−1), and the reference standard spinosad (Laser®, Corteva, 96 g product ha^−1). Treatments were applied two times, 7 days apart, with a backpack CO2 sprayer in a spray volume of 800 L ha^−1. […] Data were analyzed by one‐way ANOVA followed by a Tukey HSD LSM test with significance set at P < 0.05 (GraphPad Prism).

Myzus persicae = test: Greenhouse trial on green peach aphids on cucumbers; format: in vivo; conditions: Admire Pro 0.088 L product ha^−1; four applications
Protocol: Contact activity of Ta1b‐QA on green peach aphids (Myzus persicae (Sulzer, 1776)) on cucumbers in the greenhouse was performed in cooperation with A.C.D.S Research in North Rose, NY. The study was a randomized complete block design (RCBD), with treatments replicated six times, plots consisting of three pots each containing two to three plants. […] Treatments were applied four times, at 6–8‐day intervals, with a backpack CO2 sprayer in a spray volume of 374 L ha^−1. The number of aphids per plant was counted at regular intervals (0, 4, 11, 17, 23 and 29 d after first application). Cumulative insect‐days (defined as the area under the insect population curve as a measure of pest pressure) were calculated based on those six rating dates, then converted to % control relative to the untreated check using Abbott's formula. One replicate was removed due to a lack of pest pressure in the untreated check. Data were analyzed by one‐way ANOVA followed by a Tukey HSD LSM test with significance set at P < 0.05 (GraphPad Prism).

[3] = Gut enzyme digestion, stated jointly for three lepidopteran gut extracts; format: in vitro ADME, H. zea, S. frugiperda, T. ni; conditions: 10‐fold diluted gut extract, single exponential decay, followed up to 21 h
Protocol: as §2, §3

[4] = Gut enzyme digestion, T. ni gut extract; format: in vitro ADME, Trichoplusia ni; conditions: extract diluted ten-fold, single exponential decay fit, HPLC
Protocol: as §2, §3

[5] = Gut enzyme digestion, S. frugiperda gut extract; format: in vitro ADME, Spodoptera frugiperda; conditions: extract diluted ten-fold, single exponential decay fit, HPLC
Protocol: as §2, §3

[6] = Gut enzyme digestion, H. zea gut extract; format: in vitro ADME, Helicoverpa zea; conditions: extract diluted ten-fold, single exponential decay fit, HPLC
Protocol: as §2, §3

Compound: EPDEICRARMTNKEFTYKSNVCNNCGDQVAACEAECFANDVYTACHEAQKG (disulfide 6-36, 22-32, 25-45) [Mutant R38A]
- Degradation half time ratio to Ta1b, Trypsin (bovine trypsin): 6.5
- half-life at 10.4 mg mL^-1 [1]: 31 h
- half-life [2]: 0.215 h
- Degradation half time ratio to Ta1b, Gut extract [2]: 9.2

Compound: EPDEICRARMPNKEFTYKSNVCNNCGDQVAACEAECFRNDVYTACHEAQKG (disulfide 6-36, 22-32, 25-45) [Mutant T11P]
- Fold stability improvement over Ta1b [2]: >50

Compound: EPDEICRNRMTNKEFTYKSNVCNNCGDQVAACEAECFRNDVYTACHEAQKG (disulfide 6-36, 22-32, 25-45) [Mutant A8N]
- Fold stability improvement over Ta1b [2]: 1.8

Compound: CNC(=O)c1cc(Cl)cc(C)c1NC(=O)c1cc(Br)nn1-c1ncccc1Cl [Chlorantraniliprole, chlorantraniliprole]
- Insecticidal LD50, injection, M. domestica (95% CI) (Musca domestica): no activity
- Insecticidal LD50, injection, H. zea (95% CI) (Helicoverpa zea): 0.22 (0.15–0.37) nmol g^−1

Compound: EPDEICRANMTNKEFTYKSNVCNNCGDQVAACEAECFRNDVYTACHEAQKG (disulfide 6-36, 22-32, 25-45) [Mutant R9N]
- Fold stability improvement over Ta1b [2]: >50

Compound: GSQYCVPVDQPCSLNTQPCCDDATCTQERNENGHTVYYCRA (disulfide 5-20, 12-25, 19-39) [GS‐ω/κ, reference compound]
- Day 4 mortality of H. zea on treated lettuce leaves, peptide alone (H. zea neonates; 100 μg cm^−2, neonates, compared to untreated): significant activity on its own
- Day 4 mortality of H. zea on treated lettuce leaves, peptide in combination with Btk (H. zea neonates; 100 μg cm^−2 peptide with sublethal Btk 0.17 μg cm^−2, neonates): activity is increased
- Insecticidal LD50, injection, M. domestica (95% CI) (Musca domestica): 0.19 (0.17–0.21) nmol g^−1
- Insecticidal LD50, injection, H. zea (95% CI) (Helicoverpa zea): 5.9 (4.9–6.9) nmol g^−1
- Degradation when incubated with gut extract (HPLC) ([2]; M. sexta gut extract, HPLC peak): did not show any degradation

Compound: H-ICRAQMTNKEFTYKSNVCNNCGDQVAACEAECFRNDVYAACHEAQKG-OH (disulfide 2-32, 18-28, 21-41)
- Reduction in melting temperature vs Ta1b-QA: 14.2 °C

Compound: EPDEICRSRMTNKEFTYKSNVCNNCGDQVAACEAECFRNDVYTACHEAQKG (disulfide 6-36, 22-32, 25-45) [Mutant A8S]
- Fold stability improvement over Ta1b [2]: 12.1

Compound: spinosad
- Insecticidal LD50, injection, M. domestica (95% CI) (Musca domestica): 1.5 (0.9–2.4) nmol g^−1
- Insecticidal LD50, injection, H. zea (95% CI) (Helicoverpa zea): 0.20 (0.14–0.31) nmol g^−1
- Mean % control of larvae relative to the untreated check, comparators (Pieris brassicae): 57.8%

Compound: O=[N+]([O-])NC1=NCCN1Cc1ccc(Cl)nc1 [imidacloprid]
- Mean % control of cumulative insect‐days relative to the untreated check, reference standard (Myzus persicae): 90.4%

Compound: EPDEICRARMTNAEFTYKSNVCNNCGDQVAACEAECFRNDVYTACHEAQKG (disulfide 6-36, 22-32, 25-45) [Mutant K13A]
- Degradation half time ratio to Ta1b, Trypsin (bovine trypsin): 1.0
- half-life at 10.4 mg mL^-1 [1]: 4.9 h

Compound: EPDEICRAAMTNKEFTYKSNVCNNCGDQVAACEAECFRNDVYTACHEAQKG (disulfide 6-36, 22-32, 25-45) [Mutant R9A]
- Digestion by bovine trypsin (HPLC) (bovine trypsin; pH 8.8, room temperature, HPLC chromatogram): complete abrogation of Ta1b digestion
- Degradation half time ratio to Ta1b, Trypsin (bovine trypsin): >20
- half-life at 10.4 mg mL^-1 [1]: > 100 h
- half-life [2]: 4.97 h
- Degradation half time ratio to Ta1b, Gut extract [2]: 213

Compound: CN1COCN(Cc2cnc(Cl)s2)/C1=N\[N+](=O)[O-] [Thiamethoxam, thiamethoxam]
- Insecticidal LD50, injection, M. domestica (95% CI) (Musca domestica): 23.2 (18.1–29.6) nmol g^−1
- Insecticidal LD50, injection, H. zea (95% CI) (Helicoverpa zea): 31.9 (20.2–52.1) nmol g^−1

Compound: EPDEICRARMTNKEFTYASNVCNNCGDQVAACEAECFRNDVYTACHEAQKG (disulfide 6-36, 22-32, 25-45) [Mutant K18A]
- Degradation half time ratio to Ta1b, Trypsin (bovine trypsin): 4.1
- half-life at 10.4 mg mL^-1 [1]: 19.9 h

Compound: EPDEICRAHMTNKEFTYKSNVCNNCGDQVAACEAECFRNDVYTACHEAQKG (disulfide 6-36, 22-32, 25-45) [Mutant R9H]
- Fold stability improvement over Ta1b [2]: 16.2

Compound: EPDEICRAQMTNKEFTYKSNVCNNCGDQVAACEAECFRNDVYTACHEAQKG (disulfide 6-36, 22-32, 25-45) [Mutant R9Q]
- Degradation half‐lives in gut extracts from H. zea, S. frugiperda, and T. ni [3]: too little degradation to calculate half‐lives even after 21 h
- Degradation half-life in T. ni gut extract [4]: could not be fit to an exponential decay
- Degradation half-life in S. frugiperda gut extract [5]: could not be fit to an exponential decay
- Degradation half-life in H. zea gut extract [6]: could not be fit to an exponential decay
- Fold stability improvement over Ta1b [2]: >50

Compound: EPDEICAARMTNKEFTYKSNVCNNCGDQVAACEAECFRNDVYTACHEAQKG (disulfide 6-36, 22-32, 25-45) [Mutant R7A]
- Degradation half time ratio to Ta1b, Trypsin (bovine trypsin): 0.5
- half-life at 10.4 mg mL^-1 [1]: 2.2 h

Reference: paper PMC12441774, “Proteolytic stabilization of a spider venom peptide results in an orally active bioinsecticide” (Pest Management Science, 2025)
